Measured values published in patent US10792289B2 (Horizon Orphan LLC, priority 2009, dated 2020).

System: P. aeruginosa
Test: Phase 2 study: P. aeruginosa density in sputum
Type: in vivo, Pseudomonas aeruginosa
Conditions: for Reduction in P. aeruginosa density in sputum: median Day 1 to Day 28
Description: The following dosage regimens (as nebulizer loaded doses) were evaluated: 120 mg QD (daily); 240 mg QD (daily); and 240 mg BID (twice daily).
Patients were assessed on Day 1, 7, 14, and 28, and then up to 28 days after completion of study drug, namely, Days 42 and 56. The end of the study was defined as the last visit of the last patient.
Efficacy was evaluated by microbiologic assessment of sputum samples, time to need for anti-pseudomonal antimicrobials, the Cystic Fibrosis Questionaire-Revised (CFQ-R), and pulmonary function tests. […] Pair-wise comparisons between all the treatment arms were conducted as secondary analyses.

[1] = EE, 120 mg QD, Baseline to Day 7
[2] = EE, 120 mg QD, Baseline to Day 14
[3] = EE, 120 mg QD, Baseline to Day 28
[4] = EE, 240 mg BID, Baseline to Day 7
[5] = EE, 240 mg BID, Baseline to Day 14
[6] = EE, 240 mg BID, Baseline to Day 28
[7] = EE, 240 mg QD, Baseline to Day 7
[8] = EE, 240 mg QD, Baseline to Day 14
[9] = EE, 240 mg QD, Baseline to Day 28
[10] = EE, combined 240 mg QD and BID, Baseline to Day 7
[11] = EE, combined 240 mg QD and BID, Baseline to Day 14
[12] = EE, combined 240 mg QD and BID, Baseline to Day 28
[13] = EE, combined 240 mg QD and BID, Day 1
[14] = EE, combined 240 mg QD and BID, Day 7
[15] = EE, combined 240 mg QD and BID, Day 14
[16] = EE, combined 240 mg QD and BID, Day 28
[17] = MITT, 120 mg QD, Baseline to Day 7
[18] = MITT, 120 mg QD, Baseline to Day 14

C[C@H]1COc2c(N3CCN(C)CC3)c(F)cc3c(=O)c(C(=O)O)cn1c23 [Levofloxacin, levofloxacin]
Change in P. aeruginosa density, mean (SD) [1]: −0.76 (1.263) log10 CFU sputum | Change in P. aeruginosa density, median [1]: −0.58 log10 CFU sputum | Change in P. aeruginosa density, mean (SD) [2]: −0.10 (1.240) log10 CFU sputum | Change in P. aeruginosa density, median [2]: 0.00 log10 CFU sputum | Change in P. aeruginosa density, mean (SD) [3]: −0.31 (1.050) log10 CFU sputum | Change in P. aeruginosa density, median [3]: −0.20 log10 CFU sputum | P. aeruginosa density, median (EE, 120 mg QD, Day 1): 8.17 log10 CFU sputum | P. aeruginosa density, mean (SD) (EE, 120 mg QD, Day 7): 6.64 (1.818) log10 CFU sputum | P. aeruginosa density, median (EE, 120 mg QD, Day 7): 6.86 log10 CFU sputum | P. aeruginosa density, mean (SD) (EE, 120 mg QD, Day 14): 7.32 (1.643) log10 CFU sputum | P. aeruginosa density, median (EE, 120 mg QD, Day 14): 8.00 log10 CFU sputum | P. aeruginosa density, mean (SD) (EE, 120 mg QD, Day 28): 7.25 (1.431) log10 CFU sputum | P. aeruginosa density, median (EE, 120 mg QD, Day 28): 7.78 log10 CFU sputum | Reduction in P. aeruginosa density in sputum (EE, 120 mg QD): approximately 59% | Change in P. aeruginosa density, mean (SD) [4]: −1.03 (1.921) log10 CFU sputum | Change in P. aeruginosa density, median [4]: −0.88 log10 CFU sputum | Change in P. aeruginosa density, mean (SD) [5]: −0.83 (1.901) log10 CFU sputum | Change in P. aeruginosa density, median [5]: −0.91 log10 CFU sputum | Change in P. aeruginosa density, mean (SD) [6]: −0.74 (1.488) log10 CFU sputum | Change in P. aeruginosa density, median [6]: −0.68 log10 CFU sputum | P. aeruginosa density, mean (SD) (EE, 240 mg BID, Day 1): 7.26 (1.433) log10 CFU sputum | P. aeruginosa density, median (EE, 240 mg BID, Day 1): 7.84 log10 CFU sputum | P. aeruginosa density, mean (SD) (EE, 240 mg BID, Day 7): 6.23 (1.850) log10 CFU sputum | P. aeruginosa density, median (EE, 240 mg BID, Day 7): 6.52 log10 CFU sputum | P. aeruginosa density, mean (SD) (EE, 240 mg BID, Day 14): 6.43 (1.725) log10 CFU sputum | P. aeruginosa density, median (EE, 240 mg BID, Day 14): 6.81 log10 CFU sputum | P. aeruginosa density, mean (SD) (EE, 240 mg BID, Day 28): 6.65 (1.440) log10 CFU sputum | P. aeruginosa density, median (EE, 240 mg BID, Day 28): 6.40 log10 CFU sputum | Reduction in P. aeruginosa density in sputum (EE, 240 mg BID): approximately 96% | Change in P. aeruginosa density, mean (SD) [7]: −0.25 (1.789) log10 CFU sputum | Change in P. aeruginosa density, median [7]: −0.18 log10 CFU sputum | Change in P. aeruginosa density, mean (SD) [8]: −0.47 (1.905) log10 CFU sputum | Change in P. aeruginosa density, median [8]: −0.11 log10 CFU sputum | Change in P. aeruginosa density, mean (SD) [9]: −0.38 (1.780) log10 CFU sputum | Change in P. aeruginosa density, median [9]: −0.52 log10 CFU sputum | P. aeruginosa density, mean (SD) (EE, 240 mg QD, Day 1): 7.16 (1.597) log10 CFU sputum | P. aeruginosa density, median (EE, 240 mg QD, Day 1): 7.97 log10 CFU sputum | P. aeruginosa density, mean (SD) (EE, 240 mg QD, Day 7): 6.94 (1.783) log10 CFU sputum | P. aeruginosa density, median (EE, 240 mg QD, Day 7): 7.15 log10 CFU sputum | P. aeruginosa density, mean (SD) (EE, 240 mg QD, Day 14): 6.69 (1.628) log10 CFU sputum | P. aeruginosa density, median (EE, 240 mg QD, Day 14): 6.46 log10 CFU sputum | P. aeruginosa density, mean (SD) (EE, 240 mg QD, Day 28): 6.78 (1.896) log10 CFU sputum | P. aeruginosa density, median (EE, 240 mg QD, Day 28): 7.38 log10 CFU sputum | Reduction in P. aeruginosa density in sputum (EE, 240 mg QD): approximately 74% | Largest difference in P. aeruginosa density, placebo vs levofloxacin (EE, Day 7): 1.62 log10 CFU/g sputum | Largest difference in P. aeruginosa density, placebo vs levofloxacin (EE, Day 14): 1.39 log10 CFU/g sputum | Largest difference in P. aeruginosa density, placebo vs levofloxacin (EE, Day 28): 1.88 log10 CFU/g sputum | Change in P. aeruginosa density, mean (SD) [10]: −0.64 (1.833) log10 CFU sputum | Change in P. aeruginosa density, median [10]: −0.37 log10 CFU sputum | Change in P. aeruginosa density, mean (SD) [11]: −0.65 (1.898) log10 CFU sputum | Change in P. aeruginosa density, median [11]: −0.46 log10 CFU sputum | Change in P. aeruginosa density, mean (SD) [12]: −0.55 (1.645) log10 CFU sputum | Change in P. aeruginosa density, median [12]: −0.58 log10 CFU sputum | P. aeruginosa density, mean (SD) [13]: 7.21 (1.508) log10 CFU sputum | P. aeruginosa density, median [13]: 7.90 log10 CFU sputum | P. aeruginosa density, mean (SD) [14]: 6.59 (1.838) log10 CFU sputum | P. aeruginosa density, median [14]: 6.77 log10 CFU sputum | P. aeruginosa density, mean (SD) [15]: 6.56 (1.669) log10 CFU sputum | P. aeruginosa density, median [15]: 6.78 log10 CFU sputum | P. aeruginosa density, mean (SD) [16]: 6.72 (1.683) log10 CFU sputum | P. aeruginosa density, median [16]: 6.90 log10 CFU sputum | Change in P. aeruginosa density, mean [17]: −0.70 log10 CTU/g sputum | Change in P. aeruginosa density, median [17]: −0.53 log10 CTU/g sputum | Change in P. aeruginosa density, mean [18]: −0.07 log10 CTU/g sputum | Change in P. aeruginosa density, median [18]: 0.00 log10 CTU/g sputum | Change in P. aeruginosa density, mean (MITT, 120 mg QD, Baseline to Day 28): −0.27 log10 CTU/g sputum
